Measurements published in article PMC9570328, “Spatial Structure of NanoFAST in the Apo State and in Complex with its Fluorogen HBR-DOM2” (International Journal of Molecular Sciences, 2022).

Assays:
nanoFAST [1] = target: T1, nanoFAST (Halorhodospira halophila, UniProt P16113, C69G/Y94W/T95M/F96I/D97P/Y98T/Q99S/M100R); assay: solution NMR structure of the complex, […] intermolecular NOE distances; type: binding; settings: cited from earlier work
T1 construct: gene pyp; nanoFAST: FAST lacking the first 26 residues (98 amino acids); engineered variant of PYP
T1 sequence (P16113 27-125 C69G/Y94W/T95M/F96I/D97P/Y98T/Q99S/M100R): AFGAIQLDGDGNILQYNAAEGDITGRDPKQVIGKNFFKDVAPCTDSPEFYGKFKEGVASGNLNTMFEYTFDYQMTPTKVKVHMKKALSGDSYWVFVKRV

FAST = target: T2, FAST (Halorhodospira halophila, UniProt P16113, C69G/D97P/F96I/M100R/Q99S/T95M/Y94W/Y98T); assay: spectrofluorometric titration (Table S1); type: binding
T2 construct: gene pyp; full-length FAST (engineered variant of PYP)
T2 sequence (P16113 whole entry C69G/Y94W/T95M/F96I/D97P/Y98T/Q99S/M100R): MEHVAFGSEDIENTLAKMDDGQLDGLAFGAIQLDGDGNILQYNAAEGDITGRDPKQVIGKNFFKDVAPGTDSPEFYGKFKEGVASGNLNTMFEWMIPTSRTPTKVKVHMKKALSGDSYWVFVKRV

nanoFAST [2] = target: T1, nanoFAST; assay: fluorescence titration; weak binding, seen only at […] protein

Row | SMILES | Kd (FAST) | other results
1 | COc1cc(/C=C2\SC(=S)NC2=O)c(OC)cc1O [HBR-DOM2] |  | Kd (nanoFAST [1]): 850 nM
2 | COc1cc(/C=C2N=C(/C=C/c3ccncc3)N(C)C\2=O)c(OC)cc1O [N1048] | 150 nM | 
3 | COc1cc(O)ccc1/C=C1N=C(/C=C/c2ccncc2)N(C)C\1=O [N871b] |  | fluorescence titration; weak binding, seen only at ~100 μM protein (nanoFAST [2]): N871b is bright when bound to nanoFAST, but its binding affinity is extremely weak
4 | COc1cc(/C=C2\N=C(C)N(C)C2=O)c(OC)cc1O [N1036] | 710 nM | 
